Our source for the MIC, IC50 and Activity values is ChEMBL document CHEMBL4387792, “Cytotoxic and Antibacterial Cervinomycins B1-4 from a Streptomyces Species” (J Nat Prod, 2019).

In assay [1] the test system is Staphylococcus aureus. Kind of assay: Antibacterial activity against methicillin-resistant Staphylococcus aureus ATCC 33591 assessed as prevention of visible bacterial growth incubated for 18 hrs by broth dilution method. In kind it is functional. The following applies: ATCC 33591, 18 h.
The next assay concerns NCI-H1299. Kind of assay: Cytotoxicity against human NCI-H1299 cells incubated for 72 hrs by MTT assay. In kind it is functional, cell-based. The note with it: NCI-H1299, 72 h.
In another assay the test system is PC-3. As to the kind of experiment: Cytotoxicity against human PC3 cells incubated for 72 hrs by MTT assay. In kind it is functional, cell-based. The note with it: PC-3, 72 h.
Assay [2] has as its system Staphylococcus aureus. As to the kind of experiment: Antibacterial activity against methicillin-resistant Staphylococcus aureus 16-30 assessed as prevention of visible bacterial growth incubated for 18 hrs by broth dilution method. Type of assay: functional. The following applies: 16-30, 18 h.
Assay [3] concerns Enterococcus faecium. Kind of assay: Antibacterial activity against vancomycin-resistant Enterococcus faecium 12-1 assessed as prevention of visible bacterial growth incubated for 18 hrs by broth dilution method. The following applies: 12-1, 18 h. In kind it is functional.
The next assay has as its system SW1990. Kind of assay: Cytotoxicity against human SW1990 cells incubated for 72 hrs by MTT assay. Type of assay: functional, cell-based. The following applies: SW1990, 72 h.
Assay [4] deals with Enterococcus faecalis. Kind of assay: Antibacterial activity against vancomycin-resistant Enterococcus faecalis ATCC 51575 assessed as prevention of visible bacterial growth incubated for 18 hrs by broth dilution method. In kind it is functional. The following applies: ATCC 51575, 18 h.
Assay [5] deals with Enterococcus faecium. As to the kind of experiment: Antibacterial activity against vancomycin-resistant Enterococcus faecium ATCC 700221 assessed as prevention of visible bacterial growth incubated for 18 hrs by broth dilution method. Type of assay: functional. The note with it: ATCC 700221, 18 h.
Assay [6] has as its system Enterococcus faecalis. As to the kind of experiment: Antibacterial activity against vancomycin-resistant Enterococcus faecalis ATCC 51299 assessed as prevention of visible bacterial growth incubated for 18 hrs by broth dilution method. Type of assay: functional. The note with it: ATCC 51299, 18 h.
For another assay, the system named is Enterobacter cloacae. Kind of assay: Antibacterial activity against Enterobacter cloacae ATCC 43560 assessed as prevention of visible bacterial growth incubated for 18 hrs by broth dilution method. Type of assay: functional, organism-based.
In assay [7] the test system is Staphylococcus aureus. Kind of assay: Antibacterial activity against methicillin-sensitive Staphylococcus aureus 15 assessed as prevention of visible bacterial growth incubated for 18 hrs by broth dilution method. Type of assay: functional, organism-based.
Assay [8] has as its system Klebsiella pneumoniae. As to the kind of experiment: Antibacterial activity against extended-spectrum beta-lactamase non-producing Klebsiella pneumoniae 16-2 assessed as prevention of visible bacterial growth incubated for 18 hrs by broth dilution method. Type of assay: functional, organism-based.
The test system of assay [9] is Escherichia coli. Kind of assay: Antibacterial activity against extended-spectrum beta-lactamase non-producing Escherichia coli ATCC 25922 assessed as prevention of visible bacterial growth incubated for 18 hrs by broth dilution method. In kind it is functional, organism-based.
For assay [10], the system named is Enterococcus faecalis. As to the kind of experiment: Antibacterial activity against vancomycin-sensitive Enterococcus faecalis 16-6 assessed as prevention of visible bacterial growth incubated for 18 hrs by broth dilution method. Type of assay: functional, organism-based.
The test system of assay [11] is Staphylococcus epidermidis. Kind of assay: Antibacterial activity against methicillin-sensitive Staphylococcus epidermidis 16-4 assessed as prevention of visible bacterial growth incubated for 18 hrs by broth dilution method. Type of assay: functional, organism-based.
The subject of assay [12] is Klebsiella pneumoniae. Kind of assay: Antibacterial activity against extended-spectrum beta-lactamase producing Klebsiella pneumoniae 700603 assessed as prevention of visible bacterial growth incubated for 18 hrs by broth dilution method. In kind it is functional, organism-based.
The subject of a further assay is Pseudomonas aeruginosa. As to the kind of experiment: Antibacterial activity against Pseudomonas aeruginosa ATCC 27853 assessed as prevention of visible bacterial growth incubated for 18 hrs by broth dilution method. Type of assay: functional, organism-based.
Assay [13] deals with Enterococcus faecalis. Kind of assay: Antibacterial activity against vancomycin-sensitive Enterococcus faecalis ATCC 29212 assessed as prevention of visible bacterial growth incubated for 18 hrs by broth dilution method. Type of assay: functional, organism-based.
In assay [14] the test system is Enterococcus faecium. As to the kind of experiment: Antibacterial activity against vancomycin-sensitive Enterococcus faecium 16-5 assessed as prevention of visible bacterial growth incubated for 18 hrs by broth dilution method. In kind it is functional, organism-based.
Assay [15] has as its system Acinetobacter calcoaceticus. As to the kind of experiment: Antibacterial activity against Acinetobacter calcoaceticus ATCC 19606 assessed as prevention of visible bacterial growth incubated for 18 hrs by broth dilution method. In kind it is functional, organism-based.
Assay [16] concerns Staphylococcus epidermidis. Kind of assay: Antibacterial activity against methicillin-resistant Staphylococcus epidermidis 16-5 assessed as prevention of visible bacterial growth incubated for 18 hrs by broth dilution method. In kind it is functional, organism-based.
In assay [17] the test system is Staphylococcus aureus. Kind of assay: Antibacterial activity against methicillin-sensitive Staphylococcus aureus ATCC 29213 assessed as prevention of visible bacterial growth incubated for 18 hrs by broth dilution method. In kind it is functional, organism-based.
A further assay concerns Shigella flexneri. Kind of assay: Antibacterial activity against Shigella flexneri ATCC 12022 assessed as prevention of visible bacterial growth incubated for 18 hrs by broth dilution method. Type of assay: functional, organism-based.
Assay [18] relates to Staphylococcus epidermidis. As to the kind of experiment: Antibacterial activity against methicillin-sensitive Staphylococcus epidermidis ATCC 12228 assessed as prevention of visible bacterial growth incubated for 18 hrs by broth dilution method. Type of assay: functional, organism-based.
Assay [19] concerns Staphylococcus aureus. As to the kind of experiment: Antibacterial activity against methicillin-sensitive Staphylococcus aureus 16-1 assessed as prevention of visible bacterial growth incubated for 18 hrs by broth dilution method. Type of assay: functional, organism-based.
Assay [20] relates to Escherichia coli. Kind of assay: Antibacterial activity against extended-spectrum beta-lactamase producing Escherichia coli ATCC 35218 assessed as prevention of visible bacterial growth incubated for 18 hrs by broth dilution method. Type of assay: functional, organism-based.

Structures are written as SMILES. Values after ≈ are worked out from the molar mass of the structure shown. Active and inactive are the calls of the source. The calls are words filed in the database; no cut-off is given here.

`COc1cc2oc3c(c(=O)c2cc1OC)C(=O)c1c(ccc2cc4c(c(O)c12)C(=O)N1CCO[C@]1(C)C4)C3=O`: the minimum inhibitory concentration (MIC) came out at 0.5 µg/mL (≈ 0.948 µM) in the assay on Staphylococcus aureus [1]; 0.5 µg/mL (≈ 0.948 µM) in the assay on Staphylococcus aureus [2]; 1 µg/mL (≈ 1.9 µM) with Enterococcus faecium [3]; 0.12 µg/mL (≈ 0.227 µM) with Enterococcus faecalis [4]; 1 µg/mL (≈ 1.9 µM) in the assay with Enterococcus faecium [5]; 0.12 µg/mL (≈ 0.227 µM) in the assay on Enterococcus faecalis [6]. The 50% inhibitory concentration (IC50) in the assay with NCI-H1299 turned out to be 252 nM; in the assay with PC-3, 1310 nM; in the assay with SW1990, 704 nM.

For `COc1cc2oc3c(O)c4c(c(O)c3c(=O)c2cc1O)-c1c(cc2c(c1O)C(=O)N1CCO[C@]1(C)C2)CC4`, the result (with Enterobacter cloacae; in the assay on Staphylococcus aureus [7]; with Klebsiella pneumoniae [8]; in the assay with Escherichia coli [9]; in the assay on Enterococcus faecalis [10]; in [11]) was inactive. The outcome (in the assay on Klebsiella pneumoniae [12]; with Pseudomonas aeruginosa; in the assay on Enterococcus faecalis [13]; in the assay with Enterococcus faecium [14]; in assay [15]; in assay [16]) was inactive. Besides, the result (in the assay on Staphylococcus aureus [17]; in the assay on Shigella flexneri; in [18]; with Staphylococcus aureus [19]; in the assay on Escherichia coli [20]) was inactive. The minimal inhibitory concentration (MIC) with Staphylococcus aureus [1] amounted to 0.016 µg/mL (≈ 0.0309 µM); in the assay on Staphylococcus aureus [2], 0.008 µg/mL (≈ 0.0155 µM); with Enterococcus faecium [3] it was 0.03 µg/mL (≈ 0.058 µM); in the assay on Enterococcus faecalis [4] it was 0.016 µg/mL (≈ 0.0309 µM); with Enterococcus faecium [5], 0.03 µg/mL (≈ 0.058 µM); in the assay on Enterococcus faecalis [6], 0.016 µg/mL (≈ 0.0309 µM). For the same molecule, the IC50 in the assay with NCI-H1299 was 49.1 nM; with PC-3, 4.4 nM; in the assay on SW1990, 0.8 nM.

`C[C@H]1COc2c(N3CCN(C)CC3)c(F)cc3c(=O)c(C(=O)O)cn1c23.C[C@H]1COc2c(N3CCN(C)CC3)c(F)cc3c(=O)c(C(=O)O)cn1c23.O` [LEVOFLOXACIN]: the MIC in the assay on Staphylococcus aureus [1] came to 0.12 µg/mL; with Staphylococcus aureus [2] it was 32 µg/mL; with Enterococcus faecium [3], 128 µg/mL; with Enterococcus faecalis [4], 2 µg/mL; with Enterococcus faecium [5], 128 µg/mL; in the assay on Enterococcus faecalis [6] it was 1 µg/mL.

Turning to `COc1cc2oc3c(O)c4c(c(O)c3c(=O)c2cc1OC)-c1c(cc2c(c1O)C(=O)N1CCO[C@]1(C)C2)CC4`, the outcome (with Enterobacter cloacae; in the assay on Staphylococcus aureus [7]; in the assay on Klebsiella pneumoniae [8]; with Escherichia coli [9]; with Enterococcus faecalis [10]; in assay [11]) was inactive. Further, the result (with Klebsiella pneumoniae [12]; in the assay on Pseudomonas aeruginosa; in the assay with Enterococcus faecalis [13]; in the assay on Enterococcus faecium [14]; in assay [15]; in assay [16]) was inactive. The result (with Staphylococcus aureus [17]; in the assay on Shigella flexneri; in assay [18]; in the assay on Staphylococcus aureus [19]; with Escherichia coli [20]) was inactive. Besides, the minimal inhibitory concentration (MIC) in the assay on Staphylococcus aureus [1] amounted to 0.06 µg/mL (≈ 0.113 µM); in the assay on Staphylococcus aureus [2], 0.06 µg/mL (≈ 0.113 µM); with Enterococcus faecium [3], 0.03 µg/mL (≈ 0.0564 µM); in the assay with Enterococcus faecalis [4], 0.12 µg/mL (≈ 0.226 µM); with Enterococcus faecium [5], 0.12 µg/mL (≈ 0.226 µM); with Enterococcus faecalis [6], 0.06 µg/mL (≈ 0.113 µM). The IC50 with NCI-H1299 came to 0.1 nM; with PC-3 it was 2.2 nM; with SW1990, 2.2 nM.

Consider `COc1cc2oc3c(c(=O)c2cc1O)C(=O)C1=C(CCc2cc4c(c(O)c21)C(=O)N1CCO[C@]1(C)C4)C3=O`, for which the outcome (in the assay on Enterobacter cloacae; in the assay on Staphylococcus aureus [7]; in the assay on Klebsiella pneumoniae [8]; in the assay on Escherichia coli [9]; in the assay with Enterococcus faecalis [10]; in [11]) was inactive. Also, the outcome (in the assay on Klebsiella pneumoniae [12]; with Pseudomonas aeruginosa; in the assay with Enterococcus faecalis [13]; in the assay with Enterococcus faecium [14]; in assay [15]; in [16]) was inactive. The outcome (in the assay with Staphylococcus aureus [17]; in the assay with Shigella flexneri; in assay [18]; in the assay with Staphylococcus aureus [19]; in the assay with Escherichia coli [20]) was inactive. Also, the minimal inhibitory concentration (MIC) in the assay on Staphylococcus aureus [1] turned out to be 0.25 µg/mL (≈ 0.485 µM); in the assay on Staphylococcus aureus [2], 0.12 µg/mL (≈ 0.233 µM); in the assay with Enterococcus faecium [3] it was 0.25 µg/mL (≈ 0.485 µM); with Enterococcus faecalis [4] it was 0.5 µg/mL (≈ 0.97 µM); in the assay on Enterococcus faecium [5], 0.5 µg/mL (≈ 0.97 µM); in the assay with Enterococcus faecalis [6], 0.25 µg/mL (≈ 0.485 µM). Moreover, the IC50 was 107 nM in the assay on NCI-H1299, 34.3 nM with PC-3 and 20.9 nM with SW1990.

For the molecule `COc1cc2oc3c(c(=O)c2cc1OC)C(=O)C1=C(CCc2cc4c(c(O)c21)C(=O)N1CCO[C@]1(C)C4)C3=O`, the result (in the assay with Enterobacter cloacae; with Staphylococcus aureus [7]; in the assay on Klebsiella pneumoniae [8]; with Escherichia coli [9]; with Enterococcus faecalis [10]; in assay [11]) was inactive. In addition, the result (in the assay on Klebsiella pneumoniae [12]; in the assay on Pseudomonas aeruginosa; in the assay on Enterococcus faecalis [13]; with Enterococcus faecium [14]; in [15]; in [16]) was inactive. Moreover, the result (in the assay on Staphylococcus aureus [17]; with Shigella flexneri; in assay [18]; with Staphylococcus aureus [19]; in the assay on Escherichia coli [20]) was inactive. Further, the minimal inhibitory concentration (MIC) in the assay on Staphylococcus aureus [1] was found to be 0.06 µg/mL (≈ 0.113 µM); in the assay with Staphylococcus aureus [2], 0.12 µg/mL (≈ 0.227 µM); in the assay with Enterococcus faecium [3] it was 0.12 µg/mL (≈ 0.227 µM); in the assay on Enterococcus faecalis [4] it was 0.12 µg/mL (≈ 0.227 µM); with Enterococcus faecium [5], 0.06 µg/mL (≈ 0.113 µM); with Enterococcus faecalis [6], 0.12 µg/mL (≈ 0.227 µM). The figures for the concentration for half-maximal inhibition (IC50) in the assay on NCI-H1299, in the assay with PC-3 and in the assay with SW1990 were 2 nM, 3.5 nM and 5.4 nM, respectively.
